Here are results for three compounds from patent publication US8404265B2, “Contact lenses for extended release of bioactive agents containing diffusion attenuators” (University of Florida Research Foundation, Inc., priority 2008, dated 2013).

Format in all cases: physicochemical
One data set in a line: Solubility of DX. As to the method: For various drug loading methods, the mass of drug released at various time increments was divided by the total drug released at long time and plotted as a function of time. […] A DX-ethanol solution of equivalent concentration as the DX-PBS, 0.08 mg/ml as that of DX-PBS solution was used to allow direct comparison of the two loading modes, although a saturated DX in ethanol is about 1 mg/ml. […] For these lenses, there is not much difference in the total release amount of DX from the lenses soaked in DX-PBS solution for two different soaking times, but slower DX release is observed from lenses that were soaked for 7 days than that for 24 hours. […] For total release amount of DX, PureVision™ and ACUVUE® OASYS™ lenses release relatively smaller amounts (about 28 μg and 35 μg, respectively) compared to the other three lenses (about 38-41 μg). There is no correlation between amount of drugs released and the water content, which is likely because the hydrophobic drugs are expected to partition in the silicone rich phases, and so the partition coefficients in the gels will be mainly influenced by the silicone composition of the lenses. All the lenses soaked in DX-ethanol solution release substantially low amount of DX (2-8 μg). […]

The nature of data set [1]: Diffusivity ratio from slope of % release versus square root of time. The following applies: pure lenses. From the text: FIG. 31 plots % drugs release by Vitamin E loaded lenses as a function of the square root of time, for DX, timolol, fluzonazole and DXP. The lines of FIG. 31 are best fit straight lines over short time release data having R^2 larger than 0.98. […] The straight lines can be expressed by the equation:
[formula] where Mt is the mass of drug released at time t, M∞ the mass of drug release as time approaches infinity and for perfect sink condition M∞=M0 (initial drug loading). Therefore, from the slope of the straight line in FIG. 31, diffusivities of drug in the Vitamin E loaded lens can be determined if the mean lens thickness is known. The slope for DX, timolol, fluzonazole and DXP release is plotted versus Vitamin E loading in FIG. 32A-D. The slope decreases as Vitamin E loading increases for all lenses for all drugs release, which means (√{square root over (D)}/h) decreases. […] The h also increases as Vitamin E loading increases and lens expands symmetrically for all expansion axes (isotropic expansion) as described above. The increase of h might be 6.8% for hydrated O2OPTIX lens with 34% Vitamin E loading from FIG. 5B. Consequently, √{square root over (D)} is 39.5% of that of pure lens, i.e., D of DX in the 34% Vitamin E loaded O2OPTIX lens is 15% of that of the vitamin free (pure) lens. […]

Data set [2] in a line: DX uptake, release and partition coefficient, Vitamin E loaded lenses. The following applies: release from Vitamin E loaded lenses. As to the method:
Drug containing Vitamin E loaded lenses were prepared by directly adding drug to a Vitamin E-ethanol solution before soaking the pure lens in the solution, or by soaking a Vitamin E loaded lens in a drug-PBS solution. Drug containing Vitamin E-ethanol solutions were prepared by dissolving the drug in 3 ml of a Vitamin E-ethanol solution and then pure lens were soaked in this drug/Vitamin E-ethanol for 24 hours. The drug containing Vitamin E-ethanol lenses were taken from the solution blotted with wipes and dried overnight before subsequent release experiments.
For PureVision™ lens loaded with Vitamin E, only three different Vitamin E loadings were examined since the effect of Vitamin E loading on drug transport is minimal compared to other lenses. The insets in FIG. 21 show plots for drug release for the initial hours. Vitamin E was loaded in the lens, the lens were dried and DX was loaded in the Vitamin E loaded lens by soaking the lens in the DX-PBS solutions. […] DX loading time is relatively long for ACUVUE® OASYS™ lenses and relatively short for PureVision™ lenses relative to that of NIGHT&DAY™ and O2OPTIX lenses for similar Vitamin E loadings regardless of the level of Vitamin E loading.
For loading, an experimentally determined partition coefficient of drug in the Vitamin E loaded lens (K) is defined as: […]

Take `C[C@@H]1C[C@H]2[C@@H]3CCC4=CC(=O)C=C[C@]4(C)[C@@]3(F)[C@@H](O)C[C@]2(C)[C@@]1(O)C(=O)CO` [DX, dexamethasone]: the “concentration of nearly saturated DX-PBS solution” value in the data set “Solubility of DX” (PBS, room temperature) is about 80 µg/mL. For the same compound, in the data set “Solubility of DX” (ethanol), the “saturated DX in ethanol” value was “about 1 mg/ml”. Regarding `CC(C)(C)NC[C@H](O)COc1nsnc1N1CCOCC1` [timolol], the “D0 of timolol relative to D0 of DX” value in data set [1] is reported as “about 3 factor”.

Take Vitamin E: in data set [2], the “Vitamin E in the release medium, PBS” value is “not detected”.
